Measurements from US20230181464A1, “COMPOSITIONS FOR DELIVERY OF BIOACTIVE AGENTS INTO HAIR FOLLICLES” (FOLLICLE PHARMA LTD, priority 2020, published 2023).
Where two headings read alike, the source gives them in different places.

Legend:
[1] = tested on: C57bl mice; assay: Testosterone-induced alopecia model in mice, hair cover (Example 2); type: in vivo; settings: oral, 100 uL once daily; testosterone-injected mice
[2] = tested on: C57bl mice; assay: Testosterone-induced alopecia in mice, hair cover over 28 d (Example 3); type: in vivo; settings: oral once daily
Experimental: (§1) Hair on the backs of C57bl mice were shaved with electric clippers and subsequent application of ‘hair removal cream’ (Veet, Oxy Reckit Benckiser, Chartes, France). Twenty-four hours following hair removal, mice received daily subcutaneous injections of Testosterone, 1 mg/mouse, at the neck region. Twenty-four hours after the first Testosterone injection mice started receiving treatment as per Table 6 below. Topical formulations were applied onto the entire shaved back skin. The hair cover was analyzed by ImagJ software.

[3] = tested on: DHT (dihydrotestosterone); assay: Skin DHT expression at Day 28 (Example 3); type: in vivo, mice
Experimental: as §1

[4] = Blood concentration of dutasteride at Day 28 (Example 3); type: in vivo; settings: C57bl, mice, Oral, daily dose 5-10 ug/mouse, read-out: Blood conc (ng/ml) of dutasteride
[5] = Human, 0.5 mg PO, from the literature; cited from earlier work
[6] = cited from earlier work
[7] = drug substance listed in Table 16

SMILES: C[C@]12C=CC(=O)N[C@@H]1CC[C@@H]1[C@@H]2CC[C@]2(C)[C@@H](C(=O)Nc3cc(C(F)(F)F)ccc3C(F)(F)F)CC[C@@H]12 [dutasteride]
- % hair cover at 21 days [1]: 30%
- Group Mean Hair cover (%) ([2]; Study Day 0): 0.0%
- Group Mean Hair cover (%) ([2]; Study Day 7): 0.0%
- Group Mean Hair cover (%) ([2]; Study Day 14): 2.3%
- Group Mean Hair cover (%) ([2]; Study Day 21): 5.2%
- Group Mean Hair cover (%) ([2]; Study Day 28): 22.3%
- DHT expression in the skin (in words) ([3]; mice): did not exhibit reduced concentrations of DHT in the skin
- Mean DHT conc. (nmol/L)/group ([3]; skin, oral 5-10 ug/mouse x 1/d): 22.91 nmol/L
- concentration at 28 day [4]: 39 ng/mL
- Plasma Concentration of Dutasteride [5]: 23.60 ng/mL

SMILES: CC(=O)Oc1c(C)c(C)c2c(c1C)CCC(C)(CCC[C@H](C)CCC[C@H](C)CCCC(C)C)O2 (some centres unmarked) [Tocopherol acetate]
- logP [6, 7]: acetate LogP 10.8

SMILES: N#CC[C@H](C1CCCC1)n1cc(-c2ncnc3[nH]ccc23)cn1 [Ruxolitinib]
- logP [6]: Ruxolitinib logP, 2.48

SMILES: O=C(Nc1c(Cl)cncc1Cl)c1ccc(OC(F)F)c(OCC2CC2)c1 [Roflumilast]
- logP [6, 7]: logP 4.47

SMILES: C1=C/COCc2cc(ccc2OCCN2CCCC2)Nc2nccc(n2)-c2cccc(c2)COC/1 [Pacritinib]
- logP [6, 7]: logP 4.58

SMILES: O=C(OOC(=O)c1ccccc1)c1ccccc1 [Benzoyl peroxide]
- logP [6, 7]: LogP 2.75

SMILES: CC(C)(C)NC(=O)[C@H]1CC[C@H]2[C@@H]3CC[C@H]4NC(=O)C=C[C@]4(C)[C@H]3CC[C@]12C [Oral finasteride, finasteride]
- % hair cover at 21 days [1]: 20%

SMILES: CCOC(=O)c1ccc(C#Cc2ccc3c(c2)C(C)(C)CCS3)nc1 [Tazarotene]
- logP [6, 7]: logP 5.6
